Several values for one entry are separate records, joined by “and”; a condition that tells them apart may be missing. Equal entries are not always repeated. Toxic doses and inconclusive results are not listed.
Tested on: P388 leukemia ip, CD2F1 mice, survival T/C
Assay: NCI In Vivo Anticancer Drug Screen. Data for tumor model P388 Leukemia (intraperitoneal) in CD2F1 (CDF1) mice
Settings: endpoint: median survival time, higher = longer survival
Method in brief: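 Mice carrying the transplanted tumor received test compound or vehicle. Survival was recorded in each group, and the value is the treated-group measurement divided by that of the vehicle-treated control group.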

[1] = dose: 50.0 mg/kg/injection, schedule: Q01DX005 (ip), vehicle: saline with Tween-80
[2] = dose: 100.0 mg/kg/injection, schedule: Q01DX005 (ip), vehicle: saline with Tween-80
[3] = dose: 200.0 mg/kg/injection, schedule: Q01DX005 (ip), vehicle: saline with Tween-80
[4] = dose: 50.0 mg/kg/injection, schedule: Q01DX009 (ip), vehicle: saline
[5] = dose: 100.0 mg/kg/injection, schedule: Q01DX009 (ip), vehicle: saline
[6] = dose: 200.0 mg/kg/injection, schedule: Q01DX009 (ip), vehicle: saline
[7] = dose: 100.0 mg/kg/injection, schedule: Q01DX001 (ip), vehicle: Klucel (hydroxypropylcellulose) (HPC)
[8] = dose: 12.5 mg/kg/injection, schedule: Q01DX009 (ip), vehicle: saline
[9] = dose: 25.0 mg/kg/injection, schedule: Q01DX009 (ip), vehicle: saline
[10] = dose: 6.25 mg/kg/injection, schedule: Q01DX009 (ip), vehicle: Klucel (hydroxypropylcellulose) (HPC)
[11] = dose: 12.5 mg/kg/injection, schedule: Q01DX009 (ip), vehicle: Klucel (hydroxypropylcellulose) (HPC)

Q: `O=c1[nH]cnc2nc(S(=O)(=O)F)[nH]c12` was tested. Which T/C [1] did it give?
A: 103 % of control

Q: What about the T/C [2] of the same compound?
A: 103 % of control

Q: And the T/C [3]?
A: 103 % of control

Q: With `COCC1(COC)CCN(C2CC(O[C@H]3C[C@](O)(C(C)=O)Cc4c(O)c5c(c(O)c43)C(=O)c3c(OC)cccc3C5=O)OC(C)C2O)CC1` (stereo partly specified) as the compound, how does the T/C (dose: 1.56 mg/kg/injection, schedule: Q04DX003 (ip), vehicle: water) read?
A: 103 % of control

Q: And the T/C (dose: 3.12 mg/kg/injection, schedule: Q04DX003 (ip), vehicle: water)?
A: 110 % of control and 113 % of control

Q: What about the T/C (dose: 12.5 mg/kg/injection, schedule: Q04DX003 (ip), vehicle: water) of the same compound?
A: 183 % of control and 212 % of control

Q: What about the T/C (dose: 25.0 mg/kg/injection, schedule: Q04DX003 (ip), vehicle: water) of the same compound?
A: 152 % of control

Q: For `COC(=O)C12OCC34C(CC5C(C)C6=CC(=O)OC6=CC5(C)C3C(O)C1O)OC(=O)C(OC(C)=O)C24` (stereo unspecified), which T/C (dose: 18.37 mg/kg/injection, schedule: Q01DX005 (ip), vehicle: Klucel (hydroxypropylcellulose) (HPC)) is on record?
A: 106 % of control

Q: And the T/C (dose: 36.75 mg/kg/injection, schedule: Q01DX005 (ip), vehicle: Klucel (hydroxypropylcellulose) (HPC))?
A: 115 % of control

Q: Which results are given for `CCCN(CCC)C(C)C(O)c1ccc2cc(Br)c3ccccc3c2c1` (stereo unspecified)?
A: T/C [1]: 98 % of control; T/C [2]: 99 % of control; T/C [3]: 100 % of control

Q: For `CC(=O)Nc1ccc(N=NN(C)c2ccccc2)cc1`, which T/C (dose: 50.0 mg/kg/injection, schedule: Q01DX001 (ip), vehicle: saline) is on record?
A: 104 % of control

Q: What about the T/C (dose: 100.0 mg/kg/injection, schedule: Q01DX001 (ip), vehicle: saline) of the same compound?
A: 100 % of control

Q: With `O=C1c2ccccc2CC12OC2c1ccncc1` (stereo unspecified) as the compound, how does the T/C (dose: 100.0 mg/kg/injection, schedule: Q04DX002 (ip), vehicle: Klucel (hydroxypropylcellulose) (HPC)) read?
A: 104 % of control

Q: What about the T/C (dose: 200.0 mg/kg/injection, schedule: Q04DX002 (ip), vehicle: Klucel (hydroxypropylcellulose) (HPC)) of the same compound?
A: 100 % of control

Q: What about the T/C (dose: 400.0 mg/kg/injection, schedule: Q04DX002 (ip), vehicle: Klucel (hydroxypropylcellulose) (HPC)) of the same compound?
A: 106 % of control

Q: What does the source list for `COc1cc(C=Nc2c[nH]c(=O)[nH]c2=O)ccc1O`?
A: T/C [4]: 93 % of control; T/C [5]: 96 % of control; T/C [6]: 98 % of control

Q: With `CCCCCCCCCCCCCCCC[N+](C)(C)Cc1ccccc1` as the compound, how does the T/C (dose: 6.25 mg/kg/injection, schedule: Q04DX003 (ip), vehicle: saline) read?
A: 98 % of control

Q: What about the T/C (dose: 12.5 mg/kg/injection, schedule: Q04DX003 (ip), vehicle: saline) of the same compound?
A: 98 % of control

Q: What about the T/C (dose: 25.0 mg/kg/injection, schedule: Q04DX003 (ip), vehicle: saline) of the same compound?
A: 100 % of control

Q: What does the source list for `CNC(=O)Oc1ccc2c(c1)[C@]1(C)CCN(C)[C@@H]1N2C`?
A: T/C (dose: 0.05 mg/kg/injection, schedule: Q01DX005 (ip), vehicle: saline with Tween-80): 98 % of control; T/C (dose: 0.05 mg/kg/injection, schedule: Q01DX009 (ip), vehicle: saline): 102 % of control; T/C (dose: 0.1 mg/kg/injection, schedule: Q01DX005 (ip), vehicle: saline with Tween-80): 99 % of control; T/C (dose: 0.1 mg/kg/injection, schedule: Q01DX009 (ip), vehicle: saline): 101 % of control; T/C (dose: 0.2 mg/kg/injection, schedule: Q01DX005 (ip), vehicle: saline with Tween-80): 99 % of control; T/C (dose: 0.2 mg/kg/injection, schedule: Q01DX009 (ip), vehicle: saline): 97 % of control; T/C (dose: 0.4 mg/kg/injection, schedule: Q01DX005 (ip), vehicle: saline with Tween-80): 93 % of control; T/C (dose: 0.4 mg/kg/injection, schedule: Q01DX009 (ip), vehicle: saline): 111 % of control

Q: Which results are given for `NC(=O)C1CC(O)CN1C(=O)c1cccnc1` (stereo unspecified)?
A: T/C (dose: 60.0 mg/kg/injection, schedule: Q01DX005 (ip), vehicle: saline): 101 % of control; T/C (dose: 120.0 mg/kg/injection, schedule: Q01DX005 (ip), vehicle: saline): 100 % of control; T/C (dose: 240.0 mg/kg/injection, schedule: Q01DX005 (ip), vehicle: saline): 93 % of control

Q: How did the T/C [7] turn out when `COc1ccc(C(=O)Cc2cc(OC)c(OC)cc2Br)cc1OC` was run?
A: 93 % of control

Q: And the T/C (dose: 200.0 mg/kg/injection, schedule: Q01DX001 (ip), vehicle: Klucel (hydroxypropylcellulose) (HPC))?
A: 101 % of control

Q: What about the T/C [3] of the same compound?
A: 86 % of control

Q: What about the T/C (dose: 400.0 mg/kg/injection, schedule: Q01DX001 (ip), vehicle: Klucel (hydroxypropylcellulose) (HPC)) of the same compound?
A: 99 % of control

Q: Which results are given for `O=C(O)CNCC(=O)O`?
A: T/C [8]: 94 % of control; T/C [9]: 99 % of control; T/C [4]: 93 % of control; T/C [5]: 100 % of control and 98 % of control; T/C [6]: 100 % of control; T/C (dose: 400.0 mg/kg/injection, schedule: Q01DX009 (ip), vehicle: saline): 90 % of control

Q: `CN(C)CC(CN(C)C)C(=O)/C=C/c1ccc(Cl)cc1Cl` was tested. Which T/C (dose: 7.5 mg/kg/injection, schedule: Q01DX005 (ip), vehicle: saline) did it give?
A: 104 % of control

Q: What about the T/C (dose: 15.0 mg/kg/injection, schedule: Q01DX005 (ip), vehicle: saline) of the same compound?
A: 97 % of control

Q: And the T/C (dose: 30.0 mg/kg/injection, schedule: Q01DX005 (ip), vehicle: saline)?
A: 100 % of control

Q: With `COc1ccc(/C=C2\CCc3cc(OC)ccc3C2=O)cc1` as the compound, how does the T/C [10] read?
A: 117 % of control

Q: And the T/C [11]?
A: 117 % of control

Q: What about the T/C (dose: 25.0 mg/kg/injection, schedule: Q01DX009 (ip), vehicle: Klucel (hydroxypropylcellulose) (HPC)) of the same compound?
A: 115 % of control

Q: `Cc1ccc(S(=O)(=O)N=S(C)(C)=O)cc1` was tested. Which T/C (dose: 0.1 mg/kg/injection, schedule: Q01DX009 (ip), vehicle: saline with Tween-80) did it give?
A: 104 % of control

Q: What about the T/C (dose: 0.2 mg/kg/injection, schedule: Q01DX009 (ip), vehicle: saline with Tween-80) of the same compound?
A: 105 % of control and 108 % of control

Q: What about the T/C (dose: 0.39 mg/kg/injection, schedule: Q01DX009 (ip), vehicle: saline with Tween-80) of the same compound?
A: 99 % of control and 101 % of control

Q: And the T/C (dose: 0.78 mg/kg/injection, schedule: Q01DX009 (ip), vehicle: saline with Tween-80)?
A: 107 % of control

Q: And the T/C (dose: 0.79 mg/kg/injection, schedule: Q01DX009 (ip), vehicle: saline with Tween-80)?
A: 98 % of control

Q: What about the T/C (dose: 1.56 mg/kg/injection, schedule: Q01DX009 (ip), vehicle: saline with Tween-80) of the same compound?
A: 108 % of control and 120 % of control and 96 % of control

Q: And the T/C (dose: 6.25 mg/kg/injection, schedule: Q01DX009 (ip), vehicle: saline with Tween-80)?
A: 100 % of control and 105 % of control and 91 % of control

Q: And the T/C (dose: 12.5 mg/kg/injection, schedule: Q01DX009 (ip), vehicle: saline with Tween-80)?
A: 104 % of control and 88 % of control

Q: What about the T/C (dose: 25.0 mg/kg/injection, schedule: Q01DX009 (ip), vehicle: saline with Tween-80) of the same compound?
A: 97 % of control

Q: What does the source list for `COc1ccc(N=Nc2nc(N)c(C(N)=O)[nH]2)cc1`?
A: T/C (dose: 100.0 mg/kg/injection, schedule: Q04DX003 (ip), vehicle: Klucel (hydroxypropylcellulose) (HPC)): 100 % of control; T/C (dose: 200.0 mg/kg/injection, schedule: Q04DX003 (ip), vehicle: Klucel (hydroxypropylcellulose) (HPC)): 103 % of control; T/C (dose: 400.0 mg/kg/injection, schedule: Q04DX003 (ip), vehicle: Klucel (hydroxypropylcellulose) (HPC)): 106 % of control

Q: How did the T/C (dose: 50.0 mg/kg/injection, schedule: Q01DX005 (ip), vehicle: saline) turn out when `c1ccc(CON(CCc2ccncc2)CCc2ccncc2)cc1` was run?
A: 97 % of control

Q: And the T/C (dose: 100.0 mg/kg/injection, schedule: Q01DX005 (ip), vehicle: saline)?
A: 103 % of control

Q: And the T/C (dose: 200.0 mg/kg/injection, schedule: Q01DX005 (ip), vehicle: saline)?
A: 101 % of control

Q: What does the source list for `NC(=S)c1ccc(C=Nc2ccc(I)cc2)cc1`?
A: T/C (dose: 25.0 mg/kg/injection, schedule: Q01DX001 (ip), vehicle: Klucel (hydroxypropylcellulose) (HPC)): 93 % of control; T/C (dose: 50.0 mg/kg/injection, schedule: Q01DX001 (ip), vehicle: Klucel (hydroxypropylcellulose) (HPC)): 102 % of control; T/C [7]: 100 % of control

Q: What does the source list for `O=C(O)c1nc2ccccc2c2ncccc12`?
A: T/C (dose: 25.0 mg/kg/injection, schedule: Q04DX002 (ip), vehicle: saline with Tween-80): 101 % of control; T/C (dose: 50.0 mg/kg/injection, schedule: Q04DX002 (ip), vehicle: saline with Tween-80): 92 % of control; T/C (dose: 100.0 mg/kg/injection, schedule: Q04DX002 (ip), vehicle: saline with Tween-80): 94 % of control

Q: What does the source list for `CCCCCCCC(=O)NN`?
A: T/C (dose: 12.5 mg/kg/injection, schedule: Q01DX009 (ip), vehicle: suspension in saline): 96 % of control; T/C (dose: 25.0 mg/kg/injection, schedule: Q01DX009 (ip), vehicle: suspension in saline): 96 % of control; T/C (dose: 50.0 mg/kg/injection, schedule: Q01DX009 (ip), vehicle: suspension in saline): 97 % of control; T/C (dose: 100.0 mg/kg/injection, schedule: Q01DX009 (ip), vehicle: suspension in saline): 96 % of control

Q: `C=C1C(=O)OC2/C=C(\CO)C(OC(C)=O)CC(O)/C(C)=C/C(OC(=O)C(C)CC)C12` (stereo unspecified) was tested. Which T/C [10] did it give?
A: 111 % of control

Q: What about the T/C [11] of the same compound?
A: 119 % of control

Q: And the T/C (dose: 100.0 mg/kg/injection, schedule: Q01DX009 (ip), vehicle: Klucel (hydroxypropylcellulose) (HPC))?
A: 121 % of control

Q: Which T/C [8] does the source give for `CCN=C(CC(=O)C12CC3CC(CC(C3)C1)C2)N(CC)CC` here?
A: 109 % of control

Q: What about the T/C [9] of the same compound?
A: 112 % of control

Q: And the T/C [4]?
A: 100 % of control and 103 % of control

Source: PubChem BioAssay AID330 (DTP/NCI, 2004)
